Values joined by “and” are separate entries in the source; they are usually repeats but may differ in a detail not shown here. Equal entries are not always repeated.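 Values below derive from 48-hour exposures of cells grown in 96-well plates, with endpoints linearly interpolated between the two concentrations bracketing the appropriate inhibition level. At the GI50, growth is halved.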 Active and inactive are the calls of the source. Rule as the data show it: active = GI50 up to about 1.1 µM and inactive = higher.
Key:
Experiment in all cases: inhibition of tumour cell growth, NCI panel, 48 h
Malme-3M = tested on: Malme-3M
786-0 = tested on: 786-0
SK-MEL-5 = tested on: SK-MEL-5
ACHN = tested on: ACHN
SF-539 = tested on: SF-539
A498 = tested on: A498
HCT-15 = tested on: HCT-15
SK-MEL-28 = tested on: SK-MEL-28
NCI-H522 = tested on: NCI-H522
NCI-H226 = tested on: NCI-H226
HT-29 = tested on: HT-29
OVCAR-5 = tested on: OVCAR-5
CAKI-1 = tested on: CAKI-1
HL-60 = tested on: HL-60
LOX IMVI = tested on: LOX IMVI
SNB-75 = tested on: SNB-75
RXF 393 = tested on: RXF 393
HCC 2998 = tested on: HCC 2998
CCRF-CEM = tested on: CCRF-CEM
K562 = tested on: K562

SMILES	GI50 (Malme-3M)	GI50 (786-0)	GI50 (SK-MEL-5)	GI50 (ACHN)	GI50 (SF-539)	GI50 (A498)	GI50 (HCT-15) [µM]	GI50 (SK-MEL-28)	GI50 (NCI-H522)	GI50 (NCI-H226)	GI50 (HT-29)	GI50 (OVCAR-5)	GI50 (CAKI-1)	GI50 (HL-60)	GI50 (LOX IMVI)	GI50 (SNB-75)	GI50 (RXF 393)	GI50 (HCC 2998)	GI50 (CCRF-CEM)	GI50 (K562)
CC(C)N(C(=O)C1(O)c2ccccc2C=Cc2ccccc21)C(C)C	17.6 µM (inactive)	20.6 µM (inactive)	16.3 µM (inactive)	16.1 µM (inactive)	18.7 µM (inactive)	16.3 µM (inactive)	21.1	17.2 µM (inactive)	12.5 µM (inactive)	19.3 µM (inactive)	15.3 µM (inactive)	14.4 µM (inactive)	24.7 µM (inactive)	1.92 µM (inactive)	–	–	–	–	–	–
Cc1ccccc1NC(=O)CSc1nnc(Cc2ccccc2)o1	> 100 µM (inactive)	> 100 µM (inactive)	> 100 µM (inactive)	> 100 µM (inactive)	> 100 µM (inactive)	–	> 100	> 100 µM (inactive)	> 100 µM (inactive)	> 100 µM (inactive)	> 100 µM (inactive)	> 100 µM (inactive)	–	–	> 100 µM (inactive)	> 100 µM (inactive)	> 100 µM (inactive)	> 100 µM (inactive)	> 100 µM (inactive)	> 100 µM (inactive)
O=c1[nH]cnc2c(COCCCO)c[nH]c12	> 100 µM (inactive)	> 100 µM (inactive)	> 100 µM (inactive)	> 100 µM (inactive)	–	–	> 100	> 100 µM (inactive)	> 100 µM (inactive)	–	> 100 µM (inactive)	61.5 µM (inactive)	> 100 µM (inactive)	> 100 µM (inactive)	> 100 µM (inactive)	> 100 µM (inactive)	> 100 µM (inactive)	–	> 100 µM (inactive)	> 100 µM (inactive)
CC1OC1C(=O)P(=O)(O)O (centres undefined)	–	–	> 100 µM (inactive)	> 100 µM (inactive)	> 100 µM (inactive)	> 100 µM (inactive)	> 100	> 100 µM (inactive)	> 100 µM (inactive)	> 100 µM (inactive)	–	> 100 µM (inactive)	> 100 µM (inactive)	> 100 µM (inactive)	> 100 µM (inactive)	57.9 µM (inactive)	–	> 100 µM (inactive)	> 100 µM (inactive)	> 100 µM (inactive)
CO/C(=N\N=Cc1ccccc1)c1ccncc1	> 100 µM (inactive)	–	> 100 µM (inactive)	> 100 µM (inactive)	> 100 µM (inactive)	> 100 µM (inactive)	> 100	> 100 µM (inactive)	68.9 µM (inactive)	12.6 µM (inactive)	> 100 µM (inactive)	> 100 µM (inactive)	> 100 µM (inactive)	> 100 µM (inactive)	–	31.3 µM (inactive)	–	> 100 µM (inactive)	> 100 µM (inactive)	> 100 µM (inactive)
O=C(CCC(NC(=O)OCc1ccccc1)C(=O)OCc1ccccc1)Nc1cccc(OCc2ccccc2)c1 (centres undefined)	14.5 µM (inactive)	17.7 µM (inactive)	–	29.7 µM (inactive)	19.2 µM (inactive)	–	18.3	40.4 µM (inactive)	18.7 µM (inactive)	29.1 µM (inactive)	29.9 µM (inactive)	28.6 µM (inactive)	31.2 µM (inactive)	15.4 µM (inactive)	19.3 µM (inactive)	35.6 µM (inactive)	23.8 µM (inactive)	42.7 µM (inactive)	27.3 µM (inactive)	24.2 µM (inactive)
CCCCCCC1NN(C(C)=O)C(CCCCCC)NN1C(C)=O (centres undefined)	> 100 µM (inactive)	> 100 µM (inactive)	> 100 µM (inactive)	> 100 µM (inactive)	> 100 µM (inactive)	–	> 100	–	> 100 µM (inactive)	> 100 µM (inactive)	> 100 µM (inactive)	> 100 µM (inactive)	> 100 µM (inactive)	46.5 µM (inactive)	19.9 µM (inactive)	> 100 µM (inactive)	–	> 100 µM (inactive)	42.2 µM (inactive)	32 µM (inactive)
COc1ccc2c(c1)[n+]([O-])c(C(C)=O)c(C)[n+]2[O-]	> 100 µM (inactive)	> 100 µM (inactive)	> 100 µM (inactive)	> 100 µM (inactive)	> 100 µM (inactive)	–	> 100	> 100 µM (inactive)	> 100 µM (inactive)	> 100 µM (inactive)	> 100 µM (inactive)	> 100 µM (inactive)	> 100 µM (inactive)	> 100 µM (inactive)	> 100 µM (inactive)	–	> 100 µM (inactive)	> 100 µM (inactive)	> 10 µM (inactive)	> 100 µM (inactive)
Clc1ccc(OC2CCO2)cc1Cl (centres undefined)	> 100 µM (inactive)	85.9 µM (inactive)	62.1 µM (inactive)	49.7 µM (inactive)	> 100 µM (inactive)	38 µM (inactive)	15.7	> 100 µM (inactive)	34.3 µM (inactive)	52.8 µM (inactive)	85.5 µM (inactive)	83.2 µM (inactive)	53.1 µM (inactive)	35.6 µM (inactive)	–	> 100 µM (inactive)	–	> 100 µM (inactive)	48.3 µM (inactive)	40.6 µM (inactive)
O=C1OC(c2ccccc2)=N/C1=C\c1ccccc1	–	–	38.1 µM (inactive) and 29.4 µM (inactive)	> 100 µM (inactive)	19 µM (inactive) and 21.1 µM (inactive)	> 100 µM (inactive)	–	> 100 µM (inactive) and 83.9 µM (inactive)	42.9 µM (inactive)	24 µM (inactive) and 36.6 µM (inactive)	–	> 100 µM (inactive)	> 100 µM (inactive)	29.5 µM (inactive) and 18.7 µM (inactive)	17.1 µM (inactive) and 23.3 µM (inactive)	66.8 µM (inactive) and 47.5 µM (inactive)	–	> 100 µM (inactive) and 67.9 µM (inactive)	21 µM (inactive) and 24.6 µM (inactive)	–
O=[N+]([O-])c1ccc(C2=NOC(c3ccccc3F)N2C23CC4CC(CC(C4)C2)C3)cc1 (centres undefined)	> 100 µM (inactive)	> 100 µM (inactive)	> 100 µM (inactive)	> 100 µM (inactive)	> 100 µM (inactive)	> 100 µM (inactive)	> 100	> 100 µM (inactive)	> 100 µM (inactive)	> 100 µM (inactive)	> 100 µM (inactive)	> 100 µM (inactive)	> 100 µM (inactive)	25.9 µM (inactive)	> 100 µM (inactive)	> 100 µM (inactive)	–	> 100 µM (inactive)	> 100 µM (inactive)	> 100 µM (inactive)
COc1c(CC(C)O)c2c3c(CC(C)O)c(OC)c(=O)c4c(O)cc5c(c6c(cc(O)c(c1=O)c62)OCO5)c43 (centres undefined) [CERCOSPORIN]	0.374 µM (active)	2.66 µM (inactive)	1.52 µM (inactive)	1.63 µM (inactive)	2.13 µM (inactive)	–	1.56	1.86 µM (inactive)	1.82 µM (inactive)	2.29 µM (inactive)	0.364 µM (active)	2.88 µM (inactive)	6.01 µM (inactive)	0.968 µM (active)	0.711 µM (active)	2.38 µM (inactive)	1.27 µM (inactive)	–	2.72 µM (inactive)	2 µM (inactive)
CN(C)CC(CO)(CN(C)C)CN(C)C	> 100 µM (inactive)	> 100 µM (inactive)	> 100 µM (inactive)	> 100 µM (inactive)	> 100 µM (inactive)	–	> 100	> 100 µM (inactive)	> 100 µM (inactive)	> 100 µM (inactive)	> 100 µM (inactive)	> 100 µM (inactive)	> 100 µM (inactive)	> 100 µM (inactive)	–	> 100 µM (inactive)	> 100 µM (inactive)	–	> 100 µM (inactive)	> 100 µM (inactive)
COc1nc2c(N3CCCC3)nc(N3CCNCC3)nc2nc1NCc1ccccc1	2.07 µM (inactive)	1.33 µM (inactive)	1.53 µM (inactive)	1.98 µM (inactive)	1.75 µM (inactive)	–	1.72	2.01 µM (inactive)	1.09 µM (active)	2.34 µM (inactive)	1.07 µM (active)	2.61 µM (inactive)	2.38 µM (inactive)	1.68 µM (inactive)	1.47 µM (inactive)	1.44 µM (inactive)	1.28 µM (inactive)	1.39 µM (inactive)	1.58 µM (inactive)	1.67 µM (inactive)
COc1ccc2c(c1)-c1oc3ccccc3c(=O)c1CO2	55.8 µM (inactive)	31.7 µM (inactive)	17.4 µM (inactive)	28.1 µM (inactive)	35.5 µM (inactive)	–	24.9	–	32.1 µM (inactive)	50.4 µM (inactive)	31.1 µM (inactive)	> 100 µM (inactive)	20.8 µM (inactive)	–	21.6 µM (inactive)	31.6 µM (inactive)	–	46.5 µM (inactive)	20.5 µM (inactive)	65 µM (inactive)
c1ccc(/N=C(\N2CCCCC2)N(CCN2CCCCC2)c2ccccc2)cc1	–	–	1.36 µM (inactive)	1.58 µM (inactive)	–	–	1.68	1.99 µM (inactive)	0.428 µM (active)	2.62 µM (inactive)	0.141 µM (active)	1.82 µM (inactive)	3.15 µM (inactive)	0.277 µM (active)	0.622 µM (active)	2.28 µM (inactive)	–	1.69 µM (inactive)	1 µM (active)	0.254 µM (active)
CN(c1ccc(C(=O)c2ccc(N(C)S(C)(=O)=O)cc2)cc1)S(C)(=O)=O	> 100 µM (inactive)	> 100 µM (inactive)	27.9 µM (inactive)	77.8 µM (inactive)	–	> 100 µM (inactive)	–	54.6 µM (inactive)	94.2 µM (inactive)	> 100 µM (inactive)	> 100 µM (inactive)	> 100 µM (inactive)	> 100 µM (inactive)	76.4 µM (inactive)	–	83.6 µM (inactive)	–	–	> 100 µM (inactive)	49.3 µM (inactive)
